Measurements published in patent publication US10028960B2, “Pyrimidine compounds as JAK kinase inhibitors” (THERAVANCE BIOPHARMA R&D IP, LLC, priority 2016, dated 2018).

Assays:
JAK1 = JAK1 (Homo sapiens (Human), UniProt P23458); test: LanthaScreen JAK biochemical assay, JAK1
Experimental: (§1) A panel of four LanthaScreen JAK biochemical assays (JAK1, 2, 3 and Tyk2) were carried in a common kinase reaction buffer (50 mM HEPES, pH 7.5, 0.01% Brij-35, 10 mM MgCl2, and 1 mM EGTA). Recombinant GST-tagged JAK enzymes and a GFP-tagged STAT1 peptide substrate were obtained from Life Technologies.

JAK2 = JAK2 (Homo sapiens (Human), UniProt O60674); test: LanthaScreen JAK biochemical assay, JAK2
Experimental: as §1

Tyk2 = Tyk2 (Homo sapiens (Human), UniProt P29597); test: LanthaScreen JAK biochemical assay, Tyk2
Experimental: as §1

JAK3 = JAK3 (Homo sapiens (Human), UniProt P52333); test: LanthaScreen JAK biochemical assay, JAK3
Experimental: as §1

[1] = system: IL-13 induced STAT6 phosphorylation in HT-29 human colorectal adenocarcinoma cells; test: Cellular JAK potency assay: inhibition of IL-13 induced STAT6 phosphorylation; type: cell-based; conditions: IL-13 induced STAT6 phosphorylation, HT-29 cells
Experimental: The potency of test compounds for inhibition of the JAK-dependent cytokine interleuken-13 (IL-13) was assessed by measuring IL-13 (IL-13, R&D Systems) induced STAT6 phosphorylation in HT-29 human colorectal adenocarcinoma cells (ATCC).
The anti-STAT6 antibody (Cell Signaling Technologies) was conjugated to AlphaScreen acceptor beads (Perkin Elmer), while the anti-pSTAT6 (pTyr641) antibody (Cell Signaling Technologies) was biotinylated using EZ-Link Sulfo-NHS-Biotin (Thermo Scientific).
HT-29 cells were grown at 37° C. in a 5% CO2 humidified incubator in McCoy's 5a Modified medium (ATCC) supplemented with 10% FBS (Hyclone), 100 U/mL penicillin, 100 μg/mL streptomycin (Life Technologies), and 2 mM GlutaMAX (Life Technologies). On day 1 of the assay, cells were seeded at a 7,500 cells/well density in white poly-D-lysine-coated 384-well plates (Corning) with 25 μL medium, and were allowed to adhere overnight in the incubator. On day 2 of the assay, the medium was removed and replaced with 12 μL of assay buffer (Hank's Balanced Salt Solution/HBSS, 25 mM HEPES, and 1 mg/ml bovine serum albumin/BSA) containing dose-responses of test compounds. Compounds were serially diluted in DMSO and then diluted another 1000-fold in media to bring the final DMSO concentration to 0.1%. Cells were incubated with test compounds at 37° C. for 1 h, and followed by the addition of 12 μL of pre-warmed IL-13 (12 ng/ml in assay buffer) for stimulation. After incubating at 37° C. for 30 min, the assay buffer (containing compound and IL-13) was removed, and 10 μL of cell lysis buffer (25 mM HEPES, 0.1% SDS, 1% NP-40, 5 mM MgCl2, 1.3 mM EDTA, 1 mM EGTA, and supplement with Complete Ultra mini protease inhibitors and PhosSTOP from Roche Diagnostics). The plates were shaken at ambient temperature for 30 min before the addition of detection reagents. A mixture of biotin-anti-pSTAT6 and anti-STAT6 conjugated acceptor beads was added first and incubated at ambient temperature for 2 h, followed by the addition of streptavidin conjugated donor beads (Perkin Elmer). After a minimum of 2 h incubation, the assay plates were read on the EnVision plate reader.
Results were expressed as the negative logarithm of the IC50 value, pIC50.

Sequence of JAK2 (O60674 whole entry): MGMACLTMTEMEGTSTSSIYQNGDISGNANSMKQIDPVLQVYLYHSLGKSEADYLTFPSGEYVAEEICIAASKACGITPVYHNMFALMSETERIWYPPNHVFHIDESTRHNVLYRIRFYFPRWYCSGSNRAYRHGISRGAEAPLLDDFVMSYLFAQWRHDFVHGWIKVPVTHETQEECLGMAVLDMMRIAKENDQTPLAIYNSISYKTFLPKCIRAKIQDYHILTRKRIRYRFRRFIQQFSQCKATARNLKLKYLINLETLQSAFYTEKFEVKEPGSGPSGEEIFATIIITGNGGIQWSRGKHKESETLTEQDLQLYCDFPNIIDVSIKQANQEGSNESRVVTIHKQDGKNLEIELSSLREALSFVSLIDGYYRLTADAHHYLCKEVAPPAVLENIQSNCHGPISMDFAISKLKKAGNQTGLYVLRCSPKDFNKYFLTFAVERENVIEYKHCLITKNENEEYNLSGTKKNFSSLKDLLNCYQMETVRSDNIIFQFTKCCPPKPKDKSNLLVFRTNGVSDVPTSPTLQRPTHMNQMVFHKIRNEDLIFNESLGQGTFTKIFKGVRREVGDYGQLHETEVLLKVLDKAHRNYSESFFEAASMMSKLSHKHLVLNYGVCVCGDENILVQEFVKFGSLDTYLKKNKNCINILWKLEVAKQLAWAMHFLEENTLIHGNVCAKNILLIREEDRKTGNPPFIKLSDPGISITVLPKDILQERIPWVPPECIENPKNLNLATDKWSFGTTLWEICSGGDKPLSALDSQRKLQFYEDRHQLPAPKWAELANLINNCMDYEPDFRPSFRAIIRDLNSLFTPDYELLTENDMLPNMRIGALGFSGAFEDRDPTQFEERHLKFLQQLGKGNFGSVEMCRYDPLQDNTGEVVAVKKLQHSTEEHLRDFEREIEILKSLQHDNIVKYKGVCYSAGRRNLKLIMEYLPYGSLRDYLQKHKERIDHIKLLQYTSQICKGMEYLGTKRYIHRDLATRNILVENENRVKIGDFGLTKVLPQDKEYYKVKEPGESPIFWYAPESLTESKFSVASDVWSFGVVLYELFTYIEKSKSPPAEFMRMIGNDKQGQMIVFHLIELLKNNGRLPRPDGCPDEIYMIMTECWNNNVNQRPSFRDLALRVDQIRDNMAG
Sequence of Tyk2 (P29597 whole entry): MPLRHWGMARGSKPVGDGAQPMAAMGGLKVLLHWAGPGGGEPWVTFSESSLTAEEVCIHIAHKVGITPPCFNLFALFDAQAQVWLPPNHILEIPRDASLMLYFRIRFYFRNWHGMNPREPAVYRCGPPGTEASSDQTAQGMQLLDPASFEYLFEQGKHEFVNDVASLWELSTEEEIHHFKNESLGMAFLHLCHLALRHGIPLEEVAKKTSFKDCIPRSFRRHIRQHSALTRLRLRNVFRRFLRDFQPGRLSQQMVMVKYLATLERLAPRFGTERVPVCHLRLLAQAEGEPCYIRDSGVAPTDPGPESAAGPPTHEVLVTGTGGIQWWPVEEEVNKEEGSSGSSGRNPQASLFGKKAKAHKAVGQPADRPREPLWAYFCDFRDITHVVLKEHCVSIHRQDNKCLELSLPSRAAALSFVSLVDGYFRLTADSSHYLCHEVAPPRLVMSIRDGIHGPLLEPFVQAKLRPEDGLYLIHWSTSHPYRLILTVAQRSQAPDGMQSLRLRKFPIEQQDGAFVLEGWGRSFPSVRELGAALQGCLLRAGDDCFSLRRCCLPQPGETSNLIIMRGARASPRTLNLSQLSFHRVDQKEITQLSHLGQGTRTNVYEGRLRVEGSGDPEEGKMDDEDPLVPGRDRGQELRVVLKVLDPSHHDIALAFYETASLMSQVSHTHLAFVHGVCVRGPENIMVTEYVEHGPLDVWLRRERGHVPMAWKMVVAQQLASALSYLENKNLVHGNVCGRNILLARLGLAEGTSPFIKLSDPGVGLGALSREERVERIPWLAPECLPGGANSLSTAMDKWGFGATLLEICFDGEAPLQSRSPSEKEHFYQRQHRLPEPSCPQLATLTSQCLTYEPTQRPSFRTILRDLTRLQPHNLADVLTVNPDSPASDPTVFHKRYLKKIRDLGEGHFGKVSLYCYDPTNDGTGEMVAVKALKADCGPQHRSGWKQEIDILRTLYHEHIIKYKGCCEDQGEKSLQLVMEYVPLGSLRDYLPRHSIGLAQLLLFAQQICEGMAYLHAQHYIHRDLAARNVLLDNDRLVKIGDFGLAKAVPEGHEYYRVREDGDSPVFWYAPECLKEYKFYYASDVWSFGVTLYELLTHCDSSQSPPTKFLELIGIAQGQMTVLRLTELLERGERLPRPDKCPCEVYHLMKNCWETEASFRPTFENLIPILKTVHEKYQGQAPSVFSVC
Sequence of JAK1 (P23458 whole entry): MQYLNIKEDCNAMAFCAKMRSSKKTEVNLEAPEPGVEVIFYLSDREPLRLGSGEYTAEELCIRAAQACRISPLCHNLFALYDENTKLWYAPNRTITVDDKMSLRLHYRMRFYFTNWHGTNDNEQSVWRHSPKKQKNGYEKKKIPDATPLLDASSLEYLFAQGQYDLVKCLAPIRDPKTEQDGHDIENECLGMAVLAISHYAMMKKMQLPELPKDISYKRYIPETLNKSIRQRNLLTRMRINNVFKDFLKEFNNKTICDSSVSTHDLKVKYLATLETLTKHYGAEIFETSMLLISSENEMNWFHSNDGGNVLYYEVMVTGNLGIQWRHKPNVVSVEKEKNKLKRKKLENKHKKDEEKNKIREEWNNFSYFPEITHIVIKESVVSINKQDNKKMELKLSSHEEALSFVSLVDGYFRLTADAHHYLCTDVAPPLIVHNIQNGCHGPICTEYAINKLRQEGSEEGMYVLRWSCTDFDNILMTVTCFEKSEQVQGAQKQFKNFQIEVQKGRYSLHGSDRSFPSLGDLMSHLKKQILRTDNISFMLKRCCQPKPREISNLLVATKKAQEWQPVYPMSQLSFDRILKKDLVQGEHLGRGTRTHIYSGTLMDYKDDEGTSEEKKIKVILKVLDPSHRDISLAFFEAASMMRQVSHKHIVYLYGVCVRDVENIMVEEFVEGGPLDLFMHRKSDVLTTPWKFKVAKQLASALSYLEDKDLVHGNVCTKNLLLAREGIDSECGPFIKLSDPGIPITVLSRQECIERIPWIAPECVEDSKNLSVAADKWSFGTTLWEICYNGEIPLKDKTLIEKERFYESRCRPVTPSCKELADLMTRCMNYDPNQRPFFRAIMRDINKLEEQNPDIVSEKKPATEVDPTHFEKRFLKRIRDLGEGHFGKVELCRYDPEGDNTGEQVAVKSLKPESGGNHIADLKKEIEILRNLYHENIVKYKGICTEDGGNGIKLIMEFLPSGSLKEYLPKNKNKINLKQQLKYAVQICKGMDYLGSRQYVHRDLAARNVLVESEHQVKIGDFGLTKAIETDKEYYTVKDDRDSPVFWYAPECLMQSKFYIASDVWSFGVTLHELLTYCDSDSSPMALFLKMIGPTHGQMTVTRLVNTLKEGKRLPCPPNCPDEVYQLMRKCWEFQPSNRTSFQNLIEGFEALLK
Sequence of JAK3 (P52333 whole entry): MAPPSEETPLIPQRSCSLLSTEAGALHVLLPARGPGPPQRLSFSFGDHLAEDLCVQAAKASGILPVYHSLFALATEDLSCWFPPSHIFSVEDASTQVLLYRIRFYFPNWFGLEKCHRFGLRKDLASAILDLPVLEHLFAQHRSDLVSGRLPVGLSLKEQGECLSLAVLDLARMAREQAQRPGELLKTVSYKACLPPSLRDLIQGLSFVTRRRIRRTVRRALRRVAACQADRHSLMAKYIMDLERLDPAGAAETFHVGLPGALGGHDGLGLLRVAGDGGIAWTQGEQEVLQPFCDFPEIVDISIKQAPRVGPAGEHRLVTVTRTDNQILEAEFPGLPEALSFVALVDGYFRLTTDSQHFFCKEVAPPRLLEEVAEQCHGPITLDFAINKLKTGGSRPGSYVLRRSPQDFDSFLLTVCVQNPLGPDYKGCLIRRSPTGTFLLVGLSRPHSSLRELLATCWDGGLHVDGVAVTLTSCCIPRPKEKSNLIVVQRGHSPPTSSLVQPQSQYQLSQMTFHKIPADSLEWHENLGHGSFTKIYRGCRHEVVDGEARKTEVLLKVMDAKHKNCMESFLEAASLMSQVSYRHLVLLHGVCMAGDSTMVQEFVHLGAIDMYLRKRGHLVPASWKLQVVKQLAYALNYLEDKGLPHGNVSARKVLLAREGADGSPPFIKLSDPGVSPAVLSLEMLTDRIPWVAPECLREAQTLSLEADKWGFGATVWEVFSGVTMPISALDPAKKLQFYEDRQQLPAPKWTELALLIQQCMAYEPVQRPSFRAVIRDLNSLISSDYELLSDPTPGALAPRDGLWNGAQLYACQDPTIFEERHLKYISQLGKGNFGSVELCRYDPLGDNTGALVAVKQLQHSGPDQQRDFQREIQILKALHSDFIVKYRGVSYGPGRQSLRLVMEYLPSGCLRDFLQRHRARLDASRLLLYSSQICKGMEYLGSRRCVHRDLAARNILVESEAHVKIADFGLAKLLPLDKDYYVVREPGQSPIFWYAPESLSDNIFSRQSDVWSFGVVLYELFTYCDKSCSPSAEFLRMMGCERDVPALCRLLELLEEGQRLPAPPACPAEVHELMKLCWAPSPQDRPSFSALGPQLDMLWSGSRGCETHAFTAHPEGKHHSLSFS

Row | Compound | JAK 1 (pKi) (JAK1) | JAK 2 (pKi) (JAK2) | Tyk 2 (pKi) (Tyk2) | JAK 3 (pKi) (JAK3) | Ki (JAK1; read-out: JAK 1 (pKi) (converted)) [nM] | Ki (JAK2; read-out: JAK 2 (pKi) (converted)) [nM] | Ki (JAK3; read-out: JAK 3 (pKi) (converted)) [nM] | Ki (Tyk2; read-out: Tyk 2 (pKi) (converted)) [nM] | HT-29 (pIC50) [1]
1 | COc1cc(Nc2cc(CO)[nH]n2)nc(N(C)[C@@H]2C[C@H]3CCC[C@@H](C2)N3C(=O)CC2CC2)n1 [Example 3-5, 2-cyclopropyl-1-((1R,3s,5S)-3-((4-((5-(hydroxymethyl)-1H-pyrazol-3-yl)amino)-6-methoxypyrimidin-2-yl)(methyl)amino)-9-azabicyclo[3.3.1]nonan-9-yl)ethan-1-one] | B (B represents a pKi value between 9 and 10 (Ki between 1 nM and 0.1 nM)) | B (B represents a pKi value between 9 and 10 (Ki between 1 nM and 0.1 nM)) | B (B represents a pKi value between 9 and 10 (Ki between 1 nM and 0.1 nM)) | – | – | – | – | – | –
2 | COc1cc(Nc2cc(CO)[nH]n2)nc(N(C)[C@@H]2C[C@H]3CCC[C@@H](C2)N3CCC#N)n1 [Example 2-5, 3-((1R,3s,5S)-3-((4-((5-(hydroxymethyl)-1H-pyrazol-3-yl)amino)-6-methoxypyrimidin-2-yl)(methyl)amino)-9-azabicyclo[3.3.1]nonan-9-yl)propanenitrile] | B (B represents a pKi value between 9 and 10 (Ki between 1 nM and 0.1 nM)) | B (B represents a pKi value between 9 and 10 (Ki between 1 nM and 0.1 nM)) | C (C represents a pKi value between 8 and 9 (Ki between 10 nM and 1 nM)) | D (D represents a pKi value between 7.5 and 8 (Ki between 31.6 nM and 10 nM)) | – | – | – | – | –
3 | COc1cc(Nc2cc(CO)[nH]n2)nc(N(C)[C@@H]2C[C@H]3CCC[C@@H](C2)N3C(C)=O)n1 [Example 3-6] | B (B represents a pKi value between 9 and 10 (Ki between 1 nM and 0.1 nM)) | B (B represents a pKi value between 9 and 10 (Ki between 1 nM and 0.1 nM)) | C (C represents a pKi value between 8 and 9 (Ki between 10 nM and 1 nM)) | – | – | – | – | – | –
4 | COc1cc(Nc2cc(CO)[nH]n2)nc(N(C)[C@@H]2C[C@H]3CCC[C@@H](C2)N3C(=O)C(F)F)n1 [Example 9, 2,2-difluoro-1-((1R,3s,5S)-3-((4-((5-(hydroxymethyl)-1H-pyrazol-3-yl)amino)-6-methoxypyrimidin-2-yl)(methyl)amino)-9-azabicyclo[3.3.1]nonan-9-yl)ethan-1-one] | – | – | – | – | 0.1 to 1 | 0.1 to 1 | 10 to 31.6 | 0.1 to 1 | –
5 | COc1cc(Nc2cc(CO)[nH]n2)nc(N(C)[C@@H]2C[C@H]3CCC[C@@H](C2)N3S(=O)(=O)CCC#N)n1 [Example 1-12, 3-(((1R,3s,5S)-3-((4-((5-(hydroxymethyl)-1H-pyrazol-3-yl)amino)-6-methoxypyrimidin-2-yl)(methyl)amino)-9-azabicyclo[3.3.1]nonan-9-yl)-sulfonyl)propanenitrile] | B (B represents a pKi value between 9 and 10 (Ki between 1 nM and 0.1 nM)) | B (B represents a pKi value between 9 and 10 (Ki between 1 nM and 0.1 nM)) | B (B represents a pKi value between 9 and 10 (Ki between 1 nM and 0.1 nM)) | C (C represents a pKi value between 8 and 9 (Ki between 10 nM and 1 nM)) | – | – | – | – | –
6 | COc1cc(Nc2cc(CO)[nH]n2)nc(N(C)[C@@H]2C[C@H]3CCC[C@@H](C2)N3CC2(C#N)CC2)n1 [Example 2-6, 1-(((1R,3s,5S)-3-((4-((5-(hydroxymethyl)-1H-pyrazol-3-yl)amino)-6-methoxypyrimidin-2-yl)(methyl)amino)-9-azabicyclo[3.3.1]nonan-9-yl)methyl)cyclopropane-1-carbonitrile] | B (B represents a pKi value between 9 and 10 (Ki between 1 nM and 0.1 nM)) | B (B represents a pKi value between 9 and 10 (Ki between 1 nM and 0.1 nM)) | B (B represents a pKi value between 9 and 10 (Ki between 1 nM and 0.1 nM)) | C (C represents a pKi value between 8 and 9 (Ki between 10 nM and 1 nM)) | – | – | – | – | –
7 | COc1cc(Nc2cc(CO)[nH]n2)nc(N(C)[C@@H]2C[C@H]3CCC[C@@H](C2)N3C(=O)C2CCC2)n1 [Example 3-8, cyclobutyl((1R,3s,5S)-3-((4-((5-(hydroxymethyl)-1H-pyrazol-3-yl)amino)-6-methoxypyrimidin-2-yl)(methyl)amino)-9-azabicyclo[3.3.1]nonan-9-yl)methanone] | B (B represents a pKi value between 9 and 10 (Ki between 1 nM and 0.1 nM)) | B (B represents a pKi value between 9 and 10 (Ki between 1 nM and 0.1 nM)) | B (B represents a pKi value between 9 and 10 (Ki between 1 nM and 0.1 nM)) | – | – | – | – | – | –
8 | COc1cc(Nc2cc(CO)[nH]n2)nc(N(C)[C@@H]2C[C@H]3CCC[C@@H](C2)N3C(=O)N2CCOCC2)n1 [Example 3-4, ((1R,3s,5S)-3-((4-((5-(hydroxymethyl)-1H-pyrazol-3-yl)amino)-6-methoxy-pyrimidin-2-yl)(methyl)amino)-9-azabicyclo[3.3.1]nonan-9-yl)(morpholino)methanone] | B (B represents a pKi value between 9 and 10 (Ki between 1 nM and 0.1 nM)) | B (B represents a pKi value between 9 and 10 (Ki between 1 nM and 0.1 nM)) | B (B represents a pKi value between 9 and 10 (Ki between 1 nM and 0.1 nM)) | – | – | – | – | – | –
9 | COc1cc(Nc2cc(CO)[nH]n2)nc(N(C)[C@@H]2C[C@H]3CCC[C@@H](C2)N3C(=O)OCC(C)C)n1 [Example 3-2, isobutyl (1R,3s,5S)-3-((4-((5-(hydroxymethyl)-1H-pyrazol-3-yl)amino)-6-methoxypyrimidin-2-yl)(methyl)amino)-9-azabicyclo[3.3.1]nonane-9-carboxylate] | B (B represents a pKi value between 9 and 10 (Ki between 1 nM and 0.1 nM)) | B (B represents a pKi value between 9 and 10 (Ki between 1 nM and 0.1 nM)) | B (B represents a pKi value between 9 and 10 (Ki between 1 nM and 0.1 nM)) | – | – | – | – | – | –
10 | COC(=O)N1[C@@H]2CCC[C@H]1C[C@H](N(C)c1nc(Nc3cc(CO)[nH]n3)cc(OC)n1)C2 [Example 3-3, methyl (1R,3s,5S)-3-((4-((5-(hydroxymethyl)-1H-pyrazol-3-yl)amino)-6-methoxypyrimidin-2-yl)(methyl)amino)-9-azabicyclo[3.3.1]nonane-9-carboxylate] | B (B represents a pKi value between 9 and 10 (Ki between 1 nM and 0.1 nM)) | B (B represents a pKi value between 9 and 10 (Ki between 1 nM and 0.1 nM)) | C (C represents a pKi value between 8 and 9 (Ki between 10 nM and 1 nM)) | – | – | – | – | – | –
11 | COc1cc(Nc2cc(CO)[nH]n2)nc(N(C)[C@@H]2C[C@H]3CCC[C@@H](C2)N3C(=O)C2CCCC2)n1 [Example 3-7, cyclopentyl((1R,3s,5S)-3-((4-((5-(hydroxymethyl)-1H-pyrazol-3-yl)amino)-6-methoxypyrimidin-2-yl)(methyl)amino)-9-azabicyclo[3.3.1]nonan-9-yl)methanone] | B (B represents a pKi value between 9 and 10 (Ki between 1 nM and 0.1 nM)) | B (B represents a pKi value between 9 and 10 (Ki between 1 nM and 0.1 nM)) | B (B represents a pKi value between 9 and 10 (Ki between 1 nM and 0.1 nM)) | – | – | – | – | – | –
12 | COc1cc(Nc2cc(CO)[nH]n2)nc(N(C)[C@@H]2C[C@H]3CCC[C@@H](C2)N3Cc2ccncc2)n1 [Example 2-7, (3-((6-methoxy-2-(methyl((1R,3s,5S)-9-(pyridin-4-ylmethyl)-9-azabicyclo[3.3.1]nonan-3-yl)amino)pyrimidin-4-yl)amino)-1H-pyrazol-5-yl)methanol] | B (B represents a pKi value between 9 and 10 (Ki between 1 nM and 0.1 nM)) | – | – | – | – | – | – | – | B (B represents a pIC50 value between 6.7 and 7.5 (IC50 between 200 nM and 32 nM))
13 | COc1cc(Nc2cc(CO)[nH]n2)nc(N(C)[C@@H]2C[C@H]3CCC[C@@H](C2)N3S(=O)(=O)c2cncc(F)c2)n1 [Example 1-19, (3-((2-(((1R,3s,5S)-9-((5-fluoropyridin-3-yl)sulfonyl)-9-azabicyclo[3.3.1]nonan-3-yl)(methyl)amino)-6-methoxypyrimidin-4-yl)amino)-1H-pyrazol-5-yl)methanol] | B (B represents a pKi value between 9 and 10 (Ki between 1 nM and 0.1 nM)) | – | – | – | – | – | – | – | A (A represents a pIC50 value≥7.5 (IC50≤32 nM))
